In brackets after ≈: the same amount, converted by molar mass. Activity calls are given as the source filed them. The rule behind the calls is not given here.
Assays:
[1] = Inhibition of alpha glucosidase (unknown origin) at 100 uM preincubated for 15 mins followed by p-nitrophenyl-alpha-D-glucopyranoside addition measured after 30 mins by spectrophotometric analysis; details: Homo sapiens
[2] = Cytotoxicity against human HCT116 cells after 72 hrs by MTT assay; type: functional, cell-based; details: HCT-116, 72 h
[3] = tested on: NCI-H1650; test: Cytotoxicity against human NCI-H1650 cells after 72 hrs by MTT assay; type: functional, cell-based; details: NCI-H1650, 72 h
[4] = Cytotoxicity against human BCG823 cells after 72 hrs by MTT assay; type: functional, cell-based; details: BCG823, 72 h
[5] = Inhibition of alpha glucosidase (unknown origin) preincubated for 15 mins followed by p-nitrophenyl-alpha-D-glucopyranoside addition measured after 30 mins by spectrophotometric analysis; parameters: species or system Homo sapiens
[6] = tested on: Rattus norvegicus; test: Hypoglycemic activity in diabetic rat model assessed as decrease in blood glucose level at 100 mg/kg, ig administered for 12 days measured on ninth day of compound dosing by glucometer relative to control; type: functional; details: po, 288 h
[7] = tested on: Rattus norvegicus; test: Hypoglycemic activity in diabetic rat model assessed as decrease in blood glucose level at 100 mg/kg, ig administered for 12 days measured on third day of compound dosing by glucometer relative to control; type: functional; details: po, 288 h
[8] = tested on: Rattus norvegicus; test: Hypoglycemic activity in diabetic rat model assessed as decrease in blood glucose level at 100 mg/kg, ig administered for 12 days measured on twelfth day by glucometer relative to control; type: functional; details: po, 288 h
[9] = tested on: Rattus norvegicus; test: Hypoglycemic activity in diabetic rat model assessed as decrease in blood glucose level at 100 mg/kg, ig administered for 12 days measured on sixth day of compound dosing by glucometer relative to control; type: functional; details: po, 288 h
[10] = tested on: Rattus norvegicus; test: Hypoglycemic activity in diabetic rat model assessed as decrease in blood glucose level at 360 mg/kg, ig administered for 12 days measured on twelfth day by glucometer relative to control; type: functional; details: po, 288 h
[11] = tested on: Rattus norvegicus; test: Hypoglycemic activity in diabetic rat model assessed as decrease in blood glucose level at 360 mg/kg, ig administered for 12 days measured on third day of compound dosing by glucometer relative to control; type: functional; details: po, 288 h
[12] = tested on: Rattus norvegicus; test: Hypoglycemic activity in diabetic rat model assessed as decrease in blood glucose level at 360 mg/kg, ig administered for 12 days measured on sixth day of compound dosing by glucometer relative to control; type: functional; details: po, 288 h
[13] = tested on: Rattus norvegicus; test: Hypoglycemic activity in diabetic rat model assessed as decrease in blood glucose level at 360 mg/kg, ig administered for 12 days measured on ninth day of compound dosing by glucometer relative to control; type: functional; details: po, 288 h
[14] = tested on: Rattus norvegicus; test: Hypoglycemic activity in diabetic rat model assessed as blood glucose level at 360 mg/kg, ig administered for 12 days measured on day 12 by glucometer (reference value: 21.95 +/- 2.83 mmol/l); type: functional
[15] = tested on: Rattus norvegicus; test: Hypoglycemic activity in diabetic rat model assessed as blood glucose level at 360 mg/kg, ig administered for 12 days measured on day 9 of compound dosing by glucometer (reference value: 21.95 +/- 2.83 mmol/l); type: functional
[16] = Noncompetitive inhibition of alpha glucosidase (unknown origin) preincubated for 15 mins followed by p-nitrophenyl-alpha-D-glucopyranoside addition measured after 30 mins by Lineweaver-Burk plot analysis; parameters: species or system Homo sapiens
[17] = tested on: Rattus norvegicus; test: Hypoglycemic activity in diabetic rat model assessed as blood glucose level at 360 mg/kg, ig administered for 12 days measured on day 6 of compound dosing by glucometer (reference value: 21.95 +/- 2.83 mmol/l); type: functional
[18] = tested on: Rattus norvegicus; test: Hypoglycemic activity in diabetic rat model assessed as decrease in blood glucose level at 20 mg/kg, ig administered for 12 days measured on ninth day of compound dosing by glucometer relative to control; type: functional; details: po, 288 h
[19] = tested on: Rattus norvegicus; test: Hypoglycemic activity in diabetic rat model assessed as decrease in blood glucose level at 20 mg/kg, ig administered for 12 days measured on twelfth day by glucometer relative to control; type: functional; details: po, 288 h
[20] = tested on: Rattus norvegicus; test: Hypoglycemic activity in diabetic rat model assessed as decrease in blood glucose level at 20 mg/kg, ig administered for 12 days measured on third day of compound dosing by glucometer relative to control; type: functional; details: po, 288 h
[21] = tested on: Rattus norvegicus; test: Hypoglycemic activity in diabetic rat model assessed as decrease in blood glucose level at 20 mg/kg, ig administered for 12 days measured on sixth day of compound dosing by glucometer relative to control; type: functional; details: po, 288 h

Compound | inhibition [1] | IC50 [2] [µg/mL] | IC50 [3] [µg/mL] | IC50 [4] [µg/mL] | IC50 [5] [µM] | other results
COC(=O)C(CO)c1ccc(OC)cc1 (configuration not stated) | inactive | > 0.01 | > 0.01 | > 0.01 |  | 
COC(=O)C(/C=N/NC(N)=S)c1ccc(OC)cc1 (configuration not stated) | 14.4% | 0.0088 (≈ 0.0313 µM) | 0.0025 (≈ 0.00889 µM) | > 0.01 | > 200 | 
CCOC(=O)C(C=O)c1ccc(C(F)(F)F)cc1 (configuration not stated) | inactive | > 0.01 | > 0.01 | > 0.01 |  | 
COC(=O)C(CO)c1ccccc1 (configuration not stated) | 28.7% | > 0.01 | > 0.01 | > 0.01 | 186 | 
CN(C)C(=N)NC(=N)N [METFORMIN] |  |  |  |  |  | inhibition in vivo at 100 mg/kg [6]: 7.86%; inhibition in vivo at 100 mg/kg [7]: 7.86%; inhibition in vivo at 100 mg/kg [8]: 7.86%; inhibition in vivo at 100 mg/kg [9]: 7.86%
CCOC(=O)C(COC(=O)/C=C/c1ccc(OC)c(OC)c1)c1ccc(F)cc1 (configuration not stated) | 47.8% | > 0.01 | > 0.01 | > 0.01 | 83.8 | inhibition in vivo at 360 mg/kg [10]: 19%; inhibition in vivo at 360 mg/kg [11]: 7.86%; inhibition in vivo at 360 mg/kg [12]: 7.86%; inhibition in vivo at 360 mg/kg [13]: 7.86%
COC(=O)C(COC(=O)c1ccccc1OC(C)=O)c1ccccc1 (configuration not stated) | 13.7% | > 0.01 | > 0.01 | > 0.01 | > 200 | 
CCOC(=O)C(COC(=O)c1ccccc1)c1ccc(C(F)(F)F)cc1 (configuration not stated) | 16.8% | > 0.01 | > 0.01 | > 0.01 | > 200 | 
CCOC(=O)C(/C=N/OC)c1ccc(C(F)(F)F)cc1 (configuration not stated) | inactive | > 0.01 | > 0.01 | > 0.01 |  | 
COC(=O)C(COC(=O)/C=C/c1ccc(OC)c(OC)c1)c1ccccc1 (configuration not stated) | 11.1% | > 0.01 | > 0.01 | > 0.01 | > 200 | inhibition in vivo at 360 mg/kg [11]: 7.86%; inhibition in vivo at 360 mg/kg [12]: 7.86%; Activity [14]: 20.76 mmol/L; Activity [15]: 20.44 mmol/L
CCOC(=O)C(C=O)c1ccc(F)cc1 (configuration not stated) | 20.4% | > 0.01 | > 0.01 | > 0.01 | 183 | 
CCOC(=O)C(/C=N/NC(N)=S)c1ccc(F)cc1 (configuration not stated) | 65.3% | 0.00191 (≈ 0.00674 µM) | 0.00198 (≈ 0.00699 µM) | 0.00727 (≈ 0.0257 µM) | 46.8 | inhibition in vivo at 360 mg/kg [10]: 18.1%; inhibition in vivo at 360 mg/kg [11]: 10.3%; inhibition in vivo at 360 mg/kg [12]: 7.86%; Ki [16]: 65.4 µM; inhibition in vivo at 360 mg/kg [13]: 16.9%
COC(=O)C(C=O)c1ccccc1 (configuration not stated) | 15.3% | > 0.01 | > 0.01 | > 0.01 | > 200 | 
COC(=O)C(COC(=O)c1ccccc1)c1ccccc1 (configuration not stated) | 12.9% | > 0.01 | > 0.01 | > 0.01 | > 200 | 
CCOC(=O)C(CO)c1ccc(C(F)(F)F)cc1 (configuration not stated) | inactive | > 0.01 | > 0.01 | > 0.01 |  | 
CCOC(=O)C(COC(=O)c1ccccc1)c1ccc(F)cc1 (configuration not stated) | 27.3% | > 0.01 | > 0.01 | > 0.01 | > 200 | 
COC(=O)C(/C=N/NC(N)=S)c1ccc(C)cc1 (configuration not stated) | 20.8% | > 0.01 | 0.00534 (≈ 0.0201 µM) | 0.00522 (≈ 0.0197 µM) | 190 | 
COC(=O)C(/C=N/NC(N)=S)c1ccccc1 (configuration not stated) | 19.8% | 0.00321 (≈ 0.0128 µM) | 0.00325 (≈ 0.0129 µM) | 0.00818 (≈ 0.0325 µM) | > 200 | 
COC(=O)C(CO)c1ccc(C)cc1 (configuration not stated) | 14.6% | > 0.01 | > 0.01 | > 0.01 | > 200 | inhibition in vivo at 360 mg/kg [11]: 7.86%; Activity [14]: 21.4 mmol/L; Activity [17]: 21.66 mmol/L; Activity [15]: 21.76 mmol/L
COC(=O)C(C=O)c1ccc(C)cc1 (configuration not stated) | 29.3% | > 0.01 | > 0.01 | > 0.01 | 185 | 
CCOC(=O)C(COC(=O)c1ccccc1OC(C)=O)c1ccc(F)cc1 (configuration not stated) | 15.8% | > 0.01 | > 0.01 | > 0.01 | > 200 | 
CCOC(=O)C(CO)c1ccc(F)cc1 (configuration not stated) | 19.2% | > 0.01 | > 0.01 | > 0.01 | > 200 | 
CCOC(=O)C(/C=N/NC(N)=S)c1ccc(C(F)(F)F)cc1 (configuration not stated) | 34% | 0.00367 (≈ 0.011 µM) | 0.00805 (≈ 0.0241 µM) | > 0.01 | 137 | 
CCOC(=O)C(COC(=O)/C=C/c1ccc(OC)c(OC)c1)c1ccc(C(F)(F)F)cc1 (configuration not stated) | 29.9% | > 0.01 | > 0.01 | > 0.01 | 191 | 
COC(=O)C(C=O)c1ccc(OC)cc1 (configuration not stated) | 18.4% | > 0.01 | > 0.01 | > 0.01 | > 200 | 
CCC1=C(C)CN(C(=O)NCCc2ccc(S(=O)(=O)NC(=O)N[C@H]3CC[C@H](C)CC3)cc2)C1=O [GLIMEPIRIDE] |  |  |  |  |  | inhibition in vivo at 20 mg/kg [18]: 7.86%; inhibition in vivo at 20 mg/kg [19]: 7.86%; inhibition in vivo at 20 mg/kg [20]: 7.86%; inhibition in vivo at 20 mg/kg [21]: 7.86%
CCOC(=O)C(COC(=O)c1ccccc1OC(C)=O)c1ccc(C(F)(F)F)cc1 (configuration not stated) | 14.1% | > 0.01 | > 0.01 | > 0.01 | > 200 | 
OC[C@H]1NC[C@H](O)[C@@H](O)[C@@H]1O [DUVOGLUSTAT] | 52.5% |  |  |  | 109 | 
CCOC(=O)C(/C=N/OC)c1ccc(F)cc1 (configuration not stated) | inactive | > 0.01 | > 0.01 | > 0.01 |  | 

— ChEMBL document CHEMBL3784939, “Study on the synthesis and biological activities of α-substituted arylacetates derivatives” (Bioorg Med Chem Lett, 2016)
